From patent US20260183393A1, “IMMUNOSUPPRESSANT-RESISTANT MODIFIED ALLOGENEIC MODIFIED IMMUNE CELLS AND METHODS FOR USE THEREOF” (Beam Therapeutics Inc., priority 2023, published 2026)

B1: TSBT×6146: guide polynucleotide targeting PPIA (nucleic acid)
guide: CGTACCTGACACATAAACCCGTTTTAGAGCTAGAAATAGCAAGTTAAAATAAGGCTAGTCCGTTATCAACTTGAAAAAGTGGCACCGAGTCGGTGCTTTT
modifications: chemistry not given here
notes: guide polynucleotide targeting PPIA
B2: TSBT×6143: guide polynucleotide targeting PPIA (nucleic acid)
guide: GCCCGACCTCAAAGGAGACGGTTTTAGAGCTAGAAATAGCAAGTTAAAATAAGGCTAGTCCGTTATCAACTTGAAAAAGTGGCACCGAGTCGGTGCTTTT
modifications: chemistry not given here
notes: as for B1

Legend:
donor T cells = conditions: 10 nM dose of AP1903; cells expressing iCasp9; cited from earlier work
19CAR-T cells [1] = test: CAR-T cell proliferation assay; format: cell-based, human; conditions: corticosteroid treatment; JeKo-1 stimulation
From the text: Primary human T cells were activated using an anti-CD3/CD28/CD2 reagent. Two-days after being contacted with the reagent, the T cells were edited using a base editor system containing the guide polynucleotide TSBT×1538 and the base editor ABE8.20m using electroporation, as described above. Following electroporation, both the T cells were transduced with a lentiviral vector encoding an anti-CD19 CAR (19CAR) and allowed to expand in culture for approximately 7 days before being cryopreserved for later analysis. Unedited anti-CD19 CAR-T cells were prepared as a negative control. The 19CAR-T cells were then thawed from cryopreservation and rested overnight before being stimulated using dynabeads coated with recombinant human CD19 protein-coated at a bead-to-cell ratio of 1:1. The T cells were cultured in the presence of 100 nM of the immunosuppressant rapamycin or dimethylsulfoxide (DMSO) as a control for 6 days. The total number of T cells were enumerated using a NucleoCounter NC-200™ automated cell counter.
Primary human T cells were activated using an anti-CD3/CD28/CD2 reagent. Two days after being contacted with the reagent, the T cells were edited using a base editor system containing the guide polynucleotide TSBT×1538 and the base editor ABE8.20m using the electroporation protocol described above. Both edited and unedited T cells were transduced with a lentiviral vector encoding an anti-CD19 CAR (19CAR) and allowed to expand in culture for approximately 7 days before being cryopreserved for later analysis. Unedited 19CAR-T cells were used as a control. For analysis, the 19CAR-T cells were thawed and rested for 72 hours before labeling using a CellTrace™ Far Red (CTFR) dye. After CTFR labeling, the 19CAR-T cells were stimulated using an Immunocult™ Human CD3/CD28/CD2 universal T cell activator in the presence of 100 nM of the immunosuppressant agent rapamycin or in the presence of DMSO (control) and allowed to incubate for an additional 3 days. Following the three-day incubation, the T cells were analyzed using flow cytometry to measure dilution of CTFR dye as an indicator of cell proliferation.
The following day, T cells were washed, counted and 1×10^4 cells were seeded in triplicate into a 96-well flat bottom plate alone or with 1×10^4 JeKo-1.GFP^+ tumor cells. […] On day 7, samples were analyzed by flow cytometry and 19CAR-T cells were enumerated using CountBright Counting Beads (Thermo Fisher Scientific) following the manufacturer's protocol.

19CAR-T cells [2] = test: CAR-T cell cytokine production assay; format: cell-based, human; conditions: corticosteroid treatment; JeKo-1 stimulation; IFNg and TNFa
Protocol: (§1) 10. Monensin and Brefeldin A were added to the cell cultures to inhibit protein secretion for the duration of the stimulation. After the 6 hours, the cells were stained with reagents against 19CAR, CD4, CD8, IFNg, and TNFa, and the cells were also stained using a viability stain. Fluorescence activated cell sorting (FACS) was then used to measure intracellular levels of IFNg (y-axis) and TNFa (x-axis) in CD4^+ 19CAR-T cells. In FIG. 10, the numbers in each quadrant of each contour plot represent the percent of total cells counted that fell within the quadrant.
as §1, with “CD8^+” for “CD4^+”
The following day, T cells were washed, counted and 1×10^5 cells were seeded in duplicate into a 96-well flat bottom plate alone or with 2×10^5 JeKo-1.GFP^+ tumor cells. […] Cells were incubated for 6 hours total before analysis by flow cytometry.

endogenous NK cells = test: IL-15 treatment of HIS mice, elimination of HLA-deficient T cells; format: in vivo, BLT mice; conditions: 2.5 mg every 2-3 days, 6 total injections
From the text: FIGS. 20A to 20E provide plots, a schematic diagram, and a flow cytometry scatter plot showing human immune system (HIS) mice under-reconstituted human NK cells and necessitated IL-15 treatment to eliminate HLA-deficient T cells. FIG. 20A provides a plot showing frequency of human CD56^+ NK cells of CD45^+ cells in PBMCs from human donors (n=10), BLT-NSG mice (Cohort A, n=18; Cohort B, n=15; Cohort C, n=18) and huCD34^+ NCG mice (Cohort D, n=17; Cohort E, n=12; Cohort F, n=24; Cohort G, n=12). FIGS. 20B to 20E relate to an experiment where HIS mice were treated every 2-3 days with recombinant human IL-15 (2.5 mg) or PBS for 6 total injections. Mice were then coinfused 1:1 ratio with allogeneic CD4-based CAR-T cells that were base-edited for TCRKO (HLA+) or TCRKOb2MKOCIITAKO (HLA−). […] Statistical significance was calculated by Wilcoxon matched-pairs signed rank test (FIG. 20E).
For the study described in FIGS. 20A to 20E, BLT mice received intraperitoneal injections every 2-3 days of 2.5 mg recombinant human IL-15 (BioLegend; n=6) or sterile PBS (n=3) for 6 total injections. […] Persistence of 4CAR-T cells was monitored at 1-, 4- and 7-days post-T cell infusion via blood draw from the retro-orbital sinus. […] Persistence of 4CAR-T cells was monitored at 1-day post-T cell infusion and weekly thereafter via blood draw from submandibular vein.

PPIA protein = test: Flow cytometry of PPIA protein in edited T cells; format: cell-based, human; conditions: T cells edited with ABE8.20m and the guide, five days
From the text: FIG. 7 provides a set of overlaid flow cytometry histograms confirming knock-out of PPIA protein expression in primary human T cells edited using base editor systems containing
ABE8.20m and the guide polynucleotide TSBT×6143 or TSBT×6146 (see Table 1 for nucleotide sequences). Five days following being contacted with the base editor systems, the T cells were stained using LIVE/DEAD™ Fixable Near-Infra Red (NIR) stain (Thermo). The cells were then fixed and permeabilized followed by immunostaining using a primary antibody targeting PPIA (polyclonal Cyclophilin A Antibody from ProteinTech; 10720-1-AP). The cells were then contacted with a secondary antibody (polyclonal Goat anti-Rabbit IgG (H+L) Cross-Adsorbed Secondary Antibody labeled using Alexa Fluor™ 488 and available from Invitrogen; A-11008) and analyzed using flow cytometry. Unedited cells and isotype control antibody stained cells were used as controls representing high and low levels of PPIA protein, respectively. The x-axis of FIG. 7 indicates the level of PPIA protein measured. In FIG. 7, the y-axis represents cell counts normalized to the mode cell count measured for PPIA expression levels in a sample (i.e., the most frequently counted expression level was set to have a total cell count value (y-axis value) equal to 100).

Molecule	antigen-driven proliferation of FKBP1A^KO 19CAR-T cells (19CAR-T cells [1])	cytokine production of FKBP1A^KO 19CAR-T cells (19CAR-T cells [2])	PPIA expression (PPIA protein)	also measured
CC[C@H](C(=O)N1CCCC[C@H]1C(=O)O[C@H](CCc1ccc(OC)c(OC)c1)c1cccc(OCC(=O)NCCNC(=O)COc2cccc([C@@H](CCc3ccc(OC)c(OC)c3)OC(=O)[C@@H]3CCCCN3C(=O)[C@@H](CC)c3cc(OC)c(OC)c(OC)c3)c2)c1)c1cc(OC)c(OC)c(OC)c1 [AP1903]	–	–	–	apoptosis of donor T cells (donor T cells): approximately 99%
C[C@@H]1C[C@H]2[C@@H]3CCC4=CC(=O)C=C[C@]4(C)[C@@]3(F)[C@@H](O)C[C@]2(C)[C@@]1(O)C(=O)CO [dexamethasone, Dexamethasone]	suppressed	suppressed	–	–
C[C@]12C=CC(=O)C=C1CC[C@@H]1[C@@H]2C(=O)C[C@@]2(C)[C@H]1CC[C@]2(O)C(=O)CO [prednisone, Prednisone]	suppressed	suppressed	–	–
recombinant human IL-15: recombinant human IL-15 (BioLegend)	–	–	–	priming of endogenous NK cells against b2M^KO T cells (endogenous NK cells): prime endogenous NK cells against b2M^KO T cells in vivo
B1	–	–	Knock-out of PPIA expression	–
B2	–	–	Knock-out of PPIA expression	–
